Experimental data as given in ChEMBL document CHEMBL4414650, “Discovery of an Oleanolic Acid/Hederagenin-Nitric Oxide Donor Hybrid as an EGFR Tyrosine Kinase Inhibitor for Non-Small-Cell Lung Cancer” (J Nat Prod, 2019).
Calls of active or inactive are those of the source. No cut-off for these calls is given here.

What was measured:
KB = assay: Antiproliferative activity against human KB cells incubated for 72 hrs by SRB assay; type: functional, cell-based
MCF7 = assay: Antiproliferative activity against human MCF7 cells incubated for 72 hrs by SRB assay; type: functional, cell-based; details: MCF7, 72 h
[1] = Antiproliferative activity against human KB-VIN10 cells incubated for 72 hrs by SRB assay; type: functional, cell-based; details: KB-VIN10, 72 h
A549 = assay: Antiproliferative activity against human A549 cells harbouring wild type EGFR incubated for 72 hrs by SRB assay; type: functional, cell-based; details: A549, 72 h
NCI-H1975 [2] = assay: Antiproliferative activity against human NCI-H1975 cells assessed as induction of NO production at 100 uM incubated for 150 mins by Griess reagent based assay; type: functional, cell-based
MDA-MB-231 = assay: Antiproliferative activity against human MDA-MB-231 cells incubated for 72 hrs by SRB assay; type: functional, cell-based; details: MDA-MB-231, 72 h
NCI-H1975 [3] = assay: cells; type: functional, cell-based; details: Homo sapiens, NCI-H1975, 72 h
NCI-H1975 [4] = assay: Antiproliferative activity against human NCI-H1975 cells incubated for 72 hrs by MTS assay; type: functional, cell-based; details: NCI-H1975, 72 h
[5] = molecular target: Epidermal growth factor receptor (Homo sapiens, UniProt P00533); assay: biochemical; type: cell-based, Sf9
[6] = molecular target: Epidermal growth factor receptor (Homo sapiens, UniProt P00533, L858R/T790M); assay: biochemical; type: cell-based, Sf9
[7] = molecular target: Epidermal growth factor receptor (Homo sapiens, UniProt P00533, C797S/L858R/T790M); assay: biochemical; type: cell-based, Sf9
NCI-H1975 [8] = assay: Antiproliferative activity against human NCI-H1975 cells assessed as induction of NO production at 25 uM preincubated for 1 hr with hemoglobin followed by compound addition and measured after 48 hrs by Griess reagent based assay; type: functional, cell-based

Epidermal growth factor receptor (Homo sapiens, UniProt P00533), sequence (P00533 whole entry): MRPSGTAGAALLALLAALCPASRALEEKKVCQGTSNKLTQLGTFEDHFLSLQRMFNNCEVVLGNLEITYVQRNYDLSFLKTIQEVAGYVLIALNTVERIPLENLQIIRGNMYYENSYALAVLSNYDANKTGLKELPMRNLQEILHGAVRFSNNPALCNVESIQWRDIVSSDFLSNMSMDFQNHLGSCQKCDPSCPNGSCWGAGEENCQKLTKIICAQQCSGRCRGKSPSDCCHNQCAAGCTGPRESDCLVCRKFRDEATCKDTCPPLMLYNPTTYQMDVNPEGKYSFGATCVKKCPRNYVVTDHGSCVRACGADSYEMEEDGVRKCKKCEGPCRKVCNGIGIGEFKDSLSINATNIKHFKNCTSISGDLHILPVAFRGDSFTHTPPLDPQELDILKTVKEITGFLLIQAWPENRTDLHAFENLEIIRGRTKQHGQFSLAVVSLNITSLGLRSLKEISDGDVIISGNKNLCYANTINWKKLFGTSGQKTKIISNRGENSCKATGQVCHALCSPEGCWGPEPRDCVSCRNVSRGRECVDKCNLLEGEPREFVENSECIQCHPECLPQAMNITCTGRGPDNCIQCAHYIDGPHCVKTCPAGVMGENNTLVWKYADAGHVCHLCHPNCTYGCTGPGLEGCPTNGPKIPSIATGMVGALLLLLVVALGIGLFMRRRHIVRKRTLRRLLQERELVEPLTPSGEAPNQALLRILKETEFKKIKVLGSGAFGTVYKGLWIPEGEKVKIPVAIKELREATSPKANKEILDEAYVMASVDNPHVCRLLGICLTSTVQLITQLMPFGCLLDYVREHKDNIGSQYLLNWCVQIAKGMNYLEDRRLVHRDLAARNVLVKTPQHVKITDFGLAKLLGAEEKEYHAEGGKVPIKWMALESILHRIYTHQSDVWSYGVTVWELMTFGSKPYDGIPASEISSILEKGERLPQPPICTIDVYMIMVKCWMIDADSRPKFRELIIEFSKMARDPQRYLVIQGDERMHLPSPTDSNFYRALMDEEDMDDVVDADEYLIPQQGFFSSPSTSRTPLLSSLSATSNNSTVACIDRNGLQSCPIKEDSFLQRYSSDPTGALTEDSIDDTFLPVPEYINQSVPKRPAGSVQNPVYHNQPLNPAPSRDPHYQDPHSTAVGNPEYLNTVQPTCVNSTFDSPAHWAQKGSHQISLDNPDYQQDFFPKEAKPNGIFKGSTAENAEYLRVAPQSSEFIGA
Epidermal growth factor receptor (Homo sapiens, UniProt P00533, C797S/L858R/T790M), sequence (P00533 25-1210 T790M/C797S/L858R limits assumed): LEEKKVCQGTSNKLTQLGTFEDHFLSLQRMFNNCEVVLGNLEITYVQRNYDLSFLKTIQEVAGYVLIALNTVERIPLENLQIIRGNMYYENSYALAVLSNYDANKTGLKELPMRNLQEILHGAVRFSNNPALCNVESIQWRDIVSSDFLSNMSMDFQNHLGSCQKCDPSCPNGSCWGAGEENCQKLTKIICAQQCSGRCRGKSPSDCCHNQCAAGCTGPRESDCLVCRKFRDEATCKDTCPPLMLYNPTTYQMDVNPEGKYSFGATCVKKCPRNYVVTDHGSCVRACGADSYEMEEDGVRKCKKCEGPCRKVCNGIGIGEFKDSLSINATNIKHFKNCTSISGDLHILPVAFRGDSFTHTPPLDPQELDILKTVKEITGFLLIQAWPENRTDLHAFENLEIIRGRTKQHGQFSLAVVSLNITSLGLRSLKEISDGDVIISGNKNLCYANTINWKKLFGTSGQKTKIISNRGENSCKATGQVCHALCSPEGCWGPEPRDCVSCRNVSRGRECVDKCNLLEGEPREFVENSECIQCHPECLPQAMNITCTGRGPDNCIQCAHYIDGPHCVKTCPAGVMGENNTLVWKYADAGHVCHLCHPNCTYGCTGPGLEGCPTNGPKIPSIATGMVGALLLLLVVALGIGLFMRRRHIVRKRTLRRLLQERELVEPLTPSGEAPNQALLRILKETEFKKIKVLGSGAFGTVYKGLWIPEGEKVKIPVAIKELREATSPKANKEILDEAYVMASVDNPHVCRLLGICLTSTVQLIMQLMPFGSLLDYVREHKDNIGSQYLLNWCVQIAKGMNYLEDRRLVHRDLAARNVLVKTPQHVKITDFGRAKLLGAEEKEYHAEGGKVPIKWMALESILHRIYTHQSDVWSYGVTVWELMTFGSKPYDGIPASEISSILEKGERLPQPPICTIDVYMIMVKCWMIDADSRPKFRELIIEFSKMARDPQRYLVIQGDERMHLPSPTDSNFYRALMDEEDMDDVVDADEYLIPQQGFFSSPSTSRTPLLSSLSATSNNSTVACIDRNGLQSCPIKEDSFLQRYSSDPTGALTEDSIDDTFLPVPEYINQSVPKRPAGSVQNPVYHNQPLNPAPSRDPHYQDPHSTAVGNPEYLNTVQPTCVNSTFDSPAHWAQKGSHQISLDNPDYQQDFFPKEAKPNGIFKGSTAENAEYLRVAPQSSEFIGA
Epidermal growth factor receptor (Homo sapiens, UniProt P00533, L858R/T790M), sequence (P00533 25-1210 T790M/L858R limits assumed): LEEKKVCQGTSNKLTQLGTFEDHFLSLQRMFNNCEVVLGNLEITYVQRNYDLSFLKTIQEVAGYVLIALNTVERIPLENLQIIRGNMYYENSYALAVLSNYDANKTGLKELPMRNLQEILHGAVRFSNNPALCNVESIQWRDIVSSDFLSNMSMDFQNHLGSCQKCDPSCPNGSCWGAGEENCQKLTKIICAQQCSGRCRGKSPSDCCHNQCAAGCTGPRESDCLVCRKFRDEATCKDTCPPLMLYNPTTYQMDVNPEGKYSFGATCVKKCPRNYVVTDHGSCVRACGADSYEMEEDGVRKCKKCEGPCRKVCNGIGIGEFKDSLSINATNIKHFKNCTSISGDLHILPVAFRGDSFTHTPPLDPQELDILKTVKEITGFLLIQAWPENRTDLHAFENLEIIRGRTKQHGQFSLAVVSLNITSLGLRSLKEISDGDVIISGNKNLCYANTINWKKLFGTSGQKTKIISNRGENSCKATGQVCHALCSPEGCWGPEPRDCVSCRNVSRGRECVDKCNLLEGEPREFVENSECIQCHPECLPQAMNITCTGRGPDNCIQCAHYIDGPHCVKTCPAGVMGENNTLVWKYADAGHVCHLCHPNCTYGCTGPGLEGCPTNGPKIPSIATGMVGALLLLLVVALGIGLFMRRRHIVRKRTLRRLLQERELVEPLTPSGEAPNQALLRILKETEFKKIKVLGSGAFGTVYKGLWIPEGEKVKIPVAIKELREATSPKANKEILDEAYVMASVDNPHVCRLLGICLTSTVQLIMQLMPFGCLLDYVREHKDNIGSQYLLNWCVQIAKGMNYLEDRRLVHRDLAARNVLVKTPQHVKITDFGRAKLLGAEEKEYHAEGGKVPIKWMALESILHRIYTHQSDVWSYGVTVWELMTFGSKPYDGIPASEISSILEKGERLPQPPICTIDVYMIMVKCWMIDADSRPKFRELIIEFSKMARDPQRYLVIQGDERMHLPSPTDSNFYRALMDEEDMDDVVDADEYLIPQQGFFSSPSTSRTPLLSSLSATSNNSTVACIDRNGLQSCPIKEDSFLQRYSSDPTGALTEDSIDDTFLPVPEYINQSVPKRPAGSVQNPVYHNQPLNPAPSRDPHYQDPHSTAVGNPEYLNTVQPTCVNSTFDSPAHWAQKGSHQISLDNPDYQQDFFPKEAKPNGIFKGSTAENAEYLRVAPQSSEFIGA

Row | IC50 (MCF7) [µM] | IC50 (MDA-MB-231) [µM] | Compound | IC50 (KB) [µM] | IC50 [1] [µM] | IC50 (A549) [µM] | Activity (NCI-H1975 [2]) | IC50 (NCI-H1975 [3]) [µM] | IC50 (NCI-H1975 [4]) [µM] | IC50 [5] [µM] | IC50 [6] [µM] | IC50 [7] [µM] | Activity (NCI-H1975 [8])
1 | > 10 | 9.2 | CC1(C)CC[C@]2(C(=O)OCCO[N+](=O)[O-])CC[C@]3(C)C(=CC[C@@H]4[C@@]5(C)CC[C@H](O)[C@@](C)(CO)[C@@H]5CC[C@]43C)[C@@H]2C1 | 9.5 | > 10 | > 10 | Active | – | – | – | – | – | –
3 | – | – | CC1(C)CC[C@]2(C(=O)OCCCCO[N+](=O)[O-])CC[C@]3(C)C(=CC[C@@H]4[C@@]5(C)CC[C@H](OC(=O)c6ccc([N+](=O)[O-])cc6)C(C)(C)[C@@H]5CC[C@]43C)[C@@H]2C1 | – | – | – | – | > 10 | > 10 | > 20 | > 20 | > 20 | –
4 | > 10 | > 10 | CC1(C)CC[C@]2(C(=O)OCCCCCCO[N+](=O)[O-])CC[C@]3(C)C(=CC[C@@H]4[C@@]5(C)CC[C@H](O)C(C)(C)[C@@H]5CC[C@]43C)[C@@H]2C1 | > 10 | > 10 | > 10 | – | – | – | – | – | – | –
5 | – | – | CC1(C)CC[C@]2(C(=O)OCCCCO[N+](=O)[O-])CC[C@]3(C)C(=CC[C@@H]4[C@@]5(C)CC[C@H](OC(=O)/C=C/c6ccc7c(c6)OCO7)C(C)(C)[C@@H]5CC[C@]43C)[C@@H]2C1 | – | – | – | – | > 10 | > 10 | > 20 | > 20 | > 20 | –
6 | > 10 | > 10 | CC(=O)O[C@H]1CC[C@]2(C)[C@H]3CC=C4[C@@H]5CC(C)(C)CC[C@]5(C(=O)O)CC[C@@]4(C)[C@]3(C)CC[C@H]2C1(C)C [ACETYL OLEANOLIC ACID] | 7.6 | 7.6 | 5.8 | – | – | – | – | – | – | –
7 | > 10 | – | CC(=O)O[C@H]1C(=O)[C@@]2(C)[C@H]([C@H](OC(=O)c3ccccc3)[C@]3(O)C[C@H](OC(=O)[C@H](O)[C@@H](NC(=O)c4ccccc4)c4ccccc4)C(C)=C1C3(C)C)[C@]1(OC(C)=O)CO[C@@H]1C[C@@H]2O [PACLITAXEL] | – | > 10 | – | – | – | – | – | – | – | –
8 | 4.6 | 5.1 | CC(=O)OC[C@@]1(C)[C@@H]2CC[C@]3(C)[C@H](CC=C4[C@@H]5CC(C)(C)CC[C@]5(C(=O)OCCCCCCO[N+](=O)[O-])CC[C@]43C)[C@@]2(C)CC[C@@H]1OC(C)=O | 4.8 | 4.9 | 4.7 | Active | – | – | – | – | – | –
9 | > 10 | 7.3 | CC(=O)OC[C@@]1(C)[C@@H]2CC[C@]3(C)[C@H](CC=C4[C@@H]5CC(C)(C)CC[C@]5(C(=O)OCCO[N+](=O)[O-])CC[C@]43C)[C@@]2(C)CC[C@@H]1OC(C)=O | 7 | > 40 | 5.3 | Active | – | – | – | – | – | –
10 | 6.8 | 7.9 | CC(=O)O[C@H]1CC[C@]2(C)[C@H]3CC=C4[C@@H]5CC(C)(C)CC[C@]5(C(=O)OCCO[N+](=O)[O-])CC[C@@]4(C)[C@]3(C)CC[C@H]2C1(C)C | 4.9 | > 10 | 6.3 | Active | – | – | – | – | – | –
11 | > 10 | > 10 | CC1(C)CC[C@]2(C(=O)OCCCCO[N+](=O)[O-])CC[C@]3(C)C(=CC[C@@H]4[C@@]5(C)CC[C@H](O)C(C)(C)[C@@H]5CC[C@]43C)[C@@H]2C1 | > 10 | > 10 | 9.2 | – | – | – | – | – | – | –
12 | 6.4 | 5.3 | CC(=O)O[C@H]1CC[C@]2(C)[C@H]3CC=C4[C@@H]5CC(C)(C)CC[C@]5(C(=O)OCCCCCCO[N+](=O)[O-])CC[C@@]4(C)[C@]3(C)CC[C@H]2C1(C)C | 5.1 | 7.6 | 5 | Active | – | – | – | – | – | –
13 | > 10 | > 10 | CC1(C)CC[C@]2(C(=O)OCCCCCCO[N+](=O)[O-])CC[C@]3(C)C(=CC[C@@H]4[C@@]5(C)CC[C@H](O)[C@@](C)(CO)[C@@H]5CC[C@]43C)[C@@H]2C1 | > 10 | > 40 | > 10 | – | – | – | – | – | – | –
14 | – | – | COc1cc(N2CCC(N3CCN(C)CC3)CC2)ccc1Nc1ncc(Cl)c(Nc2ccccc2P(C)(C)=O)n1 [BRIGATINIB] | – | – | – | – | 0.64 | 0.62 | – | – | – | –
15 | > 10 | > 10 | CC(=O)OC[C@@]1(C)[C@@H]2CC[C@]3(C)[C@H](CC=C4[C@@H]5CC(C)(C)CC[C@]5(C(=O)O)CC[C@]43C)[C@@]2(C)CC[C@@H]1OC(C)=O | – | 8.5 | – | – | – | – | – | – | – | –

Row | Compound | IC50 (MCF7) [µM] | IC50 (MDA-MB-231) [µM] | IC50 (KB) [µM] | IC50 [1] [µM] | IC50 (A549) [µM] | Activity (NCI-H1975 [2]) | IC50 (NCI-H1975 [3]) [µM] | IC50 (NCI-H1975 [4]) [µM] | IC50 [5] [µM] | IC50 [6] [µM] | IC50 [7] [µM] | Activity (NCI-H1975 [8])
16 | CC1(C)CC[C@]2(C(=O)OCCO[N+](=O)[O-])CC[C@]3(C)C(=CC[C@@H]4[C@@]5(C)CC[C@H](O)C(C)(C)[C@@H]5CC[C@]43C)[C@@H]2C1 | 5.5 | 5.5 | 5 | 6.4 | 4.7 | Active | > 10 | > 10 | 0.11 | > 20 | 0.03 | –
17 | CC1(C)CC[C@]2(C(=O)OCCCCO[N+](=O)[O-])CC[C@]3(C)C(=CC[C@@H]4[C@@]5(C)CC[C@H](OCc6ccccc6)C(C)(C)[C@@H]5CC[C@]43C)[C@@H]2C1 | > 10 | > 10 | > 10 | > 10 | > 10 | – | > 10 | > 10 | > 20 | > 20 | > 20 | –
18 | CC(=O)O[C@H]1CC[C@]2(C)[C@H]3CC=C4[C@@H]5CC(C)(C)CC[C@]5(C(=O)OCCCCO[N+](=O)[O-])CC[C@@]4(C)[C@]3(C)CC[C@H]2C1(C)C | 5.2 | 5.4 | 5.3 | 5.1 | 4.8 | Active | > 10 | > 10 | 0.1 | > 20 | 0.02 | inactive
19 | CC1(C)CC[C@]2(C(=O)OCCCCO[N+](=O)[O-])CC[C@]3(C)C(=CC[C@@H]4[C@@]5(C)CC[C@H](O)[C@@](C)(CO)[C@@H]5CC[C@]43C)[C@@H]2C1 | 8 | > 10 | > 10 | > 10 | 9.3 | Active | > 10 | > 10 | 0.19 | > 20 | 0.04 | –
20 | CC(=O)OC[C@@]1(C)[C@@H]2CC[C@]3(C)[C@H](CC=C4[C@@H]5CC(C)(C)CC[C@]5(C(=O)OCCCCO[N+](=O)[O-])CC[C@]43C)[C@@]2(C)CC[C@@H]1OC(C)=O | 5 | 5.2 | 5.1 | 4.8 | 4.6 | Active | 7.6 | 8.1 | 0.06 | > 20 | 0.01 | inactive
21 | CC1(C)CC[C@]2(C(=O)O)CC[C@]3(C)C(=CC[C@@H]4[C@@]5(C)CC[C@H](O)[C@@](C)(CO)[C@@H]5CC[C@]43C)[C@@H]2C1 [HEDERAGENIN] | > 10 | > 10 | > 10 | > 10 | > 10 | – | > 10 | > 10 | > 20 | > 20 | > 20 | –
22 | CC1(C)CC[C@]2(C(=O)O)CC[C@]3(C)C(=CC[C@@H]4[C@@]5(C)CC[C@H](O)C(C)(C)[C@@H]5CC[C@]43C)[C@@H]2C1 [OLEANOLIC_ACID] | > 10 | > 10 | > 10 | > 10 | 6.4 | – | > 10 | > 10 | > 20 | > 20 | > 20 | –
23 | CC1(C)CC[C@]2(C(=O)OCCCCO[N+](=O)[O-])CC[C@]3(C)C(=CC[C@@H]4[C@@]5(C)CC[C@H](OC(=O)c6ccccc6)C(C)(C)[C@@H]5CC[C@]43C)[C@@H]2C1 | > 10 | > 10 | > 10 | > 10 | > 10 | – | > 10 | > 10 | > 20 | > 20 | > 20 | –
24 | C=CC(=O)O[C@H]1CC[C@]2(C)[C@H]3CC=C4[C@@H]5CC(C)(C)CC[C@]5(C(=O)OCCCCO[N+](=O)[O-])CC[C@@]4(C)[C@]3(C)CC[C@H]2C1(C)C | > 10 | > 10 | > 10 | > 10 | > 10 | – | > 10 | > 10 | > 20 | > 20 | > 20 | –
